Assay results from ChEMBL document CHEMBL3994622, “Design and synthesis of new RAF kinase-inhibiting antiproliferative quinoline derivatives. Part 2: Diarylurea derivatives” (Eur J Med Chem, 2017).

Tests used:
MDA-MB-468 [1] = experiment: Growth inhibition of human MDA-MB-468 cells assessed as cell growth at 0.003 uM incubated for 48 hrs by sulforhodamine B assay relative to control; type: functional; settings: MDA-MB-468, 48 h, read-out: Activity
MDA-MB-468 [2] = experiment: Growth inhibition of human MDA-MB-468 cells assessed as cell growth at 30 uM incubated for 48 hrs by sulforhodamine B assay relative to control; type: functional; settings: MDA-MB-468, 48 h, read-out: Activity
HT-29 [3] = experiment: Growth inhibition of human HT-29 cells assessed as cell growth at 50 uM incubated for 48 hrs by sulforhodamine B assay relative to control; type: functional; settings: HT-29, 48 h, read-out: Activity
HOP-62 = experiment: Growth inhibition of human HOP62 cells assessed as cell growth at 50 uM incubated for 48 hrs by sulforhodamine B assay relative to control; type: functional; settings: HOP-62, 48 h, read-out: Activity
K562 [4] = experiment: Growth inhibition of human K562 cells assessed as cell growth at 50 uM incubated for 48 hrs by sulforhodamine B assay relative to control; type: functional; settings: K562, 48 h, read-out: Activity
RPMI-8226 [5] = experiment: Growth inhibition of human RPMI8226 cells assessed as cell growth at 50 uM incubated for 48 hrs by sulforhodamine B assay relative to control; type: functional; settings: RPMI-8226, 48 h, read-out: Activity
UACC-62 = experiment: Growth inhibition of human UACC62 cells assessed as cell growth at 0.05 uM incubated for 48 hrs by sulforhodamine B assay relative to control; type: functional; settings: UACC-62, 48 h, read-out: Activity
NCI-H23 = experiment: Growth inhibition of human NCI-H23 cells assessed as cell growth at 0.5 uM incubated for 48 hrs by sulforhodamine B assay relative to control; type: functional; settings: NCI-H23, 48 h, read-out: Activity
786-0 = experiment: Growth inhibition of human 786-0 cells assessed as cell growth at 50 uM incubated for 48 hrs by sulforhodamine B assay relative to control; type: functional; settings: 786-0, 48 h, read-out: Activity
HL-60(TB) = experiment: Growth inhibition of human HL-60(TB) cells assessed as cell growth at 0.005 uM incubated for 48 hrs by sulforhodamine B assay relative to control; type: functional; settings: HL-60, 48 h, read-out: Activity
TK-10 = experiment: Growth inhibition of human TK10 cells assessed as cell growth at 5 uM incubated for 48 hrs by sulforhodamine B assay relative to control; type: functional; settings: TK-10, 48 h, read-out: Activity
OVCAR-4 = experiment: Growth inhibition of human OVCAR4 cells assessed as cell growth at 0.5 uM incubated for 48 hrs by sulforhodamine B assay relative to control; type: functional; settings: OVCAR-4, 48 h, read-out: Activity
NCI-H460 = experiment: Growth inhibition of human NCI-H460 cells assessed as cell growth at 5 uM incubated for 48 hrs by sulforhodamine B assay relative to control; type: functional; settings: NCI-H460, 48 h, read-out: Activity
SF-268 = experiment: Growth inhibition of human SF268 cells assessed as cell growth at 0.005 uM incubated for 48 hrs by sulforhodamine B assay relative to control; type: functional; settings: SF-268, 48 h, read-out: Activity
Hs-578T = experiment: Growth inhibition of human Hs 578T cells assessed as cell growth at 0.05 uM incubated for 48 hrs by sulforhodamine B assay relative to control; type: functional; settings: read-out: Activity
HT-29 [6] = experiment: Growth inhibition of human HT-29 cells assessed as cell growth at 0.05 uM incubated for 48 hrs by sulforhodamine B assay relative to control; type: functional; settings: HT-29, 48 h, read-out: Activity
KM12 = experiment: Growth inhibition of human KM12 cells assessed as cell growth at 5 uM incubated for 48 hrs by sulforhodamine B assay relative to control; type: functional; settings: KM12, 48 h, read-out: Activity
PC-3 = experiment: Growth inhibition of human PC3 cells assessed as cell growth at 0.5 uM incubated for 48 hrs by sulforhodamine B assay relative to control; type: functional; settings: PC-3, 48 h, read-out: Activity
UACC-257 = experiment: Growth inhibition of human UACC257 cells assessed as cell growth at 0.005 uM incubated for 48 hrs by sulforhodamine B assay relative to control; type: functional; settings: UACC-257, 48 h, read-out: Activity
A549 [7] = experiment: Growth inhibition of human A549/ATCC cells assessed as cell growth at 0.05 uM incubated for 48 hrs by sulforhodamine B assay relative to control; type: functional; settings: A549, 48 h, read-out: Activity
MCF7 = experiment: Growth inhibition of human MCF7 cells assessed as cell growth at 0.5 uM incubated for 48 hrs by sulforhodamine B assay relative to control; type: functional; settings: MCF7, 48 h, read-out: Activity
HCT-116 = experiment: Growth inhibition of human HCT116 cells assessed as cell growth at 50 uM incubated for 48 hrs by sulforhodamine B assay relative to control; type: functional; settings: HCT-116, 48 h, read-out: Activity
A549 [8] = experiment: Growth inhibition of human A549/ATCC cells assessed as cell growth at 5 uM incubated for 48 hrs by sulforhodamine B assay relative to control; type: functional; settings: A549, 48 h, read-out: Activity
SK-OV-3 = experiment: Growth inhibition of human SKOV3 cells assessed as cell growth at 0.05 uM incubated for 48 hrs by sulforhodamine B assay relative to control; type: functional; settings: SK-OV-3, 48 h, read-out: Activity
HCC 2998 = experiment: Growth inhibition of human HCC2998 cells assessed as cell growth at 0.5 uM incubated for 48 hrs by sulforhodamine B assay relative to control; type: functional; settings: HCC 2998, 48 h, read-out: Activity
RPMI-8226 [9] = experiment: Growth inhibition of human RPMI8226 cells assessed as cell growth at 0.005 uM incubated for 48 hrs by sulforhodamine B assay relative to control; type: functional; settings: RPMI-8226, 48 h, read-out: Activity
DU-145 = experiment: Growth inhibition of human DU145 cells assessed as cell growth at 50 uM incubated for 48 hrs by sulforhodamine B assay relative to control; type: functional; settings: DU-145, 48 h, read-out: Activity
HCT-15 = experiment: Growth inhibition of human HCT15 cells assessed as cell growth at 0.005 uM incubated for 48 hrs by sulforhodamine B assay relative to control; type: functional; settings: HCT-15, 48 h, read-out: Activity
ACHN = experiment: Growth inhibition of human ACHN cells assessed as cell growth at 0.05 uM incubated for 48 hrs by sulforhodamine B assay relative to control; type: functional; settings: read-out: Activity
K562 [10] = experiment: Growth inhibition of human K562 cells assessed as cell growth at 0.5 uM incubated for 48 hrs by sulforhodamine B assay relative to control; type: functional; settings: K562, 48 h, read-out: Activity
OVCAR-3 = experiment: Growth inhibition of human OVCAR3 cells assessed as cell growth at 5 uM incubated for 48 hrs by sulforhodamine B assay relative to control; type: functional; settings: OVCAR-3, 48 h, read-out: Activity
CAKI-1 = experiment: Growth inhibition of human Caki1 cells assessed as cell growth at 0.005 uM incubated for 48 hrs by sulforhodamine B assay relative to control; type: functional; settings: CAKI-1, 48 h, read-out: Activity
[11] = molecular target: Platelet-derived growth factor receptor beta (Homo sapiens) (UniProt P09619); experiment: Inhibition of human PDGFRbeta at 10 uM using poly[Glu:Tyr] (4:1) as substrate in presence of [33P]ATP by Hotspot assay relative to control
Platelet-derived growth factor receptor beta (Homo sapiens), sequence (P09619 whole entry): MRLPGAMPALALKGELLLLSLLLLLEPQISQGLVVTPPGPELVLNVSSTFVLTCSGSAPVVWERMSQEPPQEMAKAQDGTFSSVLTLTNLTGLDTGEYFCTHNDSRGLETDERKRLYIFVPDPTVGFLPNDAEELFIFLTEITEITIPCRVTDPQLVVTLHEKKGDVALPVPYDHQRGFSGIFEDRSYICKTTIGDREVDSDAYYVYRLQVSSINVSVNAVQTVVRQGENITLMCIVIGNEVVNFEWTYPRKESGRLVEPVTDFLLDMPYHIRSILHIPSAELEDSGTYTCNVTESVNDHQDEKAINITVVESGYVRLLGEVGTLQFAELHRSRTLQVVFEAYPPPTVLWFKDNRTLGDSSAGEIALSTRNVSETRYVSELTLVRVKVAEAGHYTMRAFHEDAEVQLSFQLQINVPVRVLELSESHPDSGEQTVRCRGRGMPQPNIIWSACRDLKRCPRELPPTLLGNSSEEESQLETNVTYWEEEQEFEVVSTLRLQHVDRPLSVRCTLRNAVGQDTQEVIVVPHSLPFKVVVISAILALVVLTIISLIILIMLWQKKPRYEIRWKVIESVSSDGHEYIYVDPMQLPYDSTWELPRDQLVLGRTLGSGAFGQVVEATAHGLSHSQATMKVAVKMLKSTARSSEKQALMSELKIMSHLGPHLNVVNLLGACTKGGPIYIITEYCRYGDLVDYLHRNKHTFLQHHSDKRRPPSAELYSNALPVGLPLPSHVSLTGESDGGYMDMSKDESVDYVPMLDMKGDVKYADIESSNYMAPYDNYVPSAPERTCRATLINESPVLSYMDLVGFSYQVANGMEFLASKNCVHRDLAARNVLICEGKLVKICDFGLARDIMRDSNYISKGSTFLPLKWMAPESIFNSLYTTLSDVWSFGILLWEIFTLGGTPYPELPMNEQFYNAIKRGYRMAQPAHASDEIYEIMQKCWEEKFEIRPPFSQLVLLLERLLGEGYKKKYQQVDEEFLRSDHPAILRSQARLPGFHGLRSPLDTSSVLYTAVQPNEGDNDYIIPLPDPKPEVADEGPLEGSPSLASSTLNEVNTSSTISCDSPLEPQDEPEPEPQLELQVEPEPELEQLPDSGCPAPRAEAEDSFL

For `Cc1nc2cc(O)c(O)cc2cc1Oc1ccc(NC(=O)Nc2ccc(Cl)c(Cl)c2)cc1`, the growth at 0.003 µM (MDA-MB-468 [1]) was 100% and the growth at 30 µM (MDA-MB-468 [2]) was -34%.

Compound `COc1cc2cc(Oc3ccc(NC(=O)Nc4cccc(C(F)(F)F)c4)cc3)c(C)nc2cc1OC` has a growth at 50 µM (HT-29 [3]) of -99%, a growth at 50 µM (HOP-62) of -85% and a growth at 50 µM (K562 [4]) of -16%. It also gave a growth at 50 µM (RPMI-8226 [5]) of -47%, a growth at 0.05 µM (UACC-62) of 94% and a growth at 0.5 µM (NCI-H23) of 97%. For the same compound, the growth at 50 µM (786-0) was -33%, the growth at 0.005 µM (HL-60(TB)) was 104% and the growth at 5 µM (TK-10) was 19%. It also gave a growth at 0.5 µM (OVCAR-4) of 99%, a growth at 5 µM (NCI-H460) of 5% and a growth at 0.005 µM (SF-268) of 90%. It also gave a growth at 0.05 µM (Hs-578T) of 100%, a growth at 0.05 µM (HT-29 [6]) of 100% and a growth at 5 µM (KM12) of 5%. It also gave a growth at 0.5 µM (PC-3) of 88%, a growth at 0.005 µM (UACC-257) of 95% and a growth at 0.05 µM (A549 [7]) of 96%. For the same compound, the growth at 0.5 µM (MCF7) was 85%, the growth at 50 µM (HCT-116) was -86% and the growth at 5 µM (A549 [8]) was 9%. For the same compound, the growth at 0.05 µM (SK-OV-3) was 95%, the growth at 0.5 µM (HCC 2998) was 109% and the growth at 0.005 µM (RPMI-8226 [9]) was 103%. It also gave a growth at 50 µM (DU-145) of -32%, a growth at 0.005 µM (HCT-15) of 96% and a growth at 0.05 µM (ACHN) of 99%. It also gave a growth at 0.5 µM (K562 [10]) of 93%, a growth at 5 µM (OVCAR-3) of 15% and a growth at 0.005 µM (CAKI-1) of 98%.

`COc1cc2cc(Oc3ccc(NC(=O)Nc4ccc(Cl)c(C(F)(F)F)c4)cc3)c(C)nc2cc1OC` was tested, and the inhibition [11] was 29.5%.
